The results in this text go back to the NIST ThermoML archive (doi:10.1021/je100177u).

For the series the following is noted: 298.15 K; for surface tension liquid-gas: Drop volume; for mass density: 101.33 kPa, Liquid.

Each structure is given as a SMILES string. Numbers after ± are expanded uncertainties.

With `CCCCCl` [1-chlorobutane], the surface tension liquid-gas was 23.29 ± 0.18 mN/m and the mass density was 880.69 ± 0.61 kg/m3.

Regarding `CC(C)CO` [2-methyl-1-propanol], the surface tension liquid-gas stood at 22.47 ± 0.15 mN/m and the mass density amounted to 797.77 ± 0.62 kg/m3.

Consider `CC(C)(C)O` [2-methylpropan-2-ol], for which the surface tension liquid-gas is recorded as 20.3 ± 0.14 mN/m and the mass density came to 780.78 ± 0.65 kg/m3.

`CCCCO` [butan-1-ol]: the surface tension liquid-gas is 24.25 ± 0.15 mN/m and the mass density was found to be 805.8 ± 0.29 kg/m3.

For the compound `CCC(C)O` (configuration not stated) [butan-2-ol], the surface tension liquid-gas is on record as 23.08 ± 0.18 mN/m and the mass density was 802.44 ± 0.73 kg/m3.

Regarding `CCCCCC` [hexane], the surface tension liquid-gas was determined as 18.06 ± 0.16 mN/m and the mass density is 655.07 ± 0.98 kg/m3.
